# Data published in patent publication US9828630B2, “Methods of enhancing genetic diagnosis” (BioLamina AB, priority 2011, dated 2017).
# Experiments:
# [1] = tested on: human ES cells; experiment: Cell survival assay, 24 hours (1 day) after plating from single cell suspension; assay type: cell-based; conditions: for adhesion / survival without additives compared with ROCK inhibitor treated cells: 1 day (24 hours) after plating; for survival / attachment of dissociated hES cells 24 hours (one day) after plating: single cell suspension, O3 medium
# Method: The assay was performed as described (Extracellular Matrix Protocols, 2000). Briefly, 96-well plates were coated by extracellular matrix proteins as described above and blocked by O3 medium containing bovine serum albumin. The ES cells were plated at a cell density of 600 cell/mm^2 upon extracellular matrix-coated plates and were left to adhere for either 1 hour or 1 day at the cell incubator. Non-adherent cells were washed away, and adherent cells were fixed for 20 min by 5% glutaraldehyde, stained by 0.1% Crystal Violet.
# The survival assay was performed as described for the cell adhesion assay above, except that the cells were left in the cell incubator for 24 hours. For inhibition of survival assay, the cells were kept in a medium with function blocking antibodies at the concentrations recommended by the manufacturer or pathway inhibitors at concentrations indicated in the text for 30 minutes, and then plated on the coated dishes. All the experiments were performed in quadruplicate.
# Pluripotent hES cells express α1, α5, β1, β2 and γ1 laminin chains. To compare the adhesion and clonal survival of hES cells plated from single cell suspension to different coating substrata, hES cells growing as monolayers on LN-511 or as clusters on a feeder layer were trypsinized into single cell suspension in O3 medium and plated on cell culture dishes coated with Matrigel, LN-111, LN-511, LN-521 or a mixture of LN-511 and LN-521, in the absence or presence of a ROCK inhibitor (Y-27632) and analyzed after 24 hours.
# [2] = tested on: hES cells; experiment: In vivo imaging and migration assay; assay type: cell-based, human
# Method: 24-well plates were coated by extracellular matrix proteins and blocked by O3 medium containing bovine serum albumin. The ES cells were plated at cell density of 30,000-40,000 cells/cm^2 onto extracellular matrix-coated plates and left to adhere for half an hour in a cell incubator. After that, the plate was transferred into high content imaging system Operetta (PerkinElmer) equipped with environmental control unit, which allowed to keep 37° C., 5% CO2. For two movies that were made, the brightfield images were taken once in 15 minutes during 24 hours after plating using Harmony software (PerkinElmer), exported, and analyzed using ImageJ software (NIH, the US). For migration assay the images were taken every seven minutes during 18 hours after plating. Images acquired between the fifth and seventh hours after plating were analyzed using MTrackJ plug-in (University Medical Center, Rotterdam, The Netherlands). 100 attached cells on each coating were traced and mean distances from the current to the previous point of the track were calculated. Error bars show standard error of the mean s.e.m. (n=100).
# [3] = tested on: human ES cells; experiment: Cell survival assay, 24 hours (1 day) after plating from single cell suspension; assay type: cell-based; conditions: 10 μM Y-27632, 40,000 cells per 1 cm^2, 24 hours
# [4] = tested on: human ES cells; experiment: Real-time quantitative RT-PCR / marker expression of pluripotency and differentiation markers; assay type: cell-based
# Method: Total RNA was isolated and cDNA was synthesized as described in Rodin et al., Nature Biotechnol., vol. 28, pp. 611-615 (2010). Real-time quantitative RT-PCR Taqman assays were performed using the Applied Biosystems 7300 Real-Time PCR System. All reactions were done in quadruplicate with predeveloped gene expression assay mix (Applied Biosystems) containing primers and a probe for the mRNA of interest. Additional reactions for each experiment included predeveloped gene expression assay mix for GAPDH, used to normalize the RNA input. All data were analyzed with 7300 System SDS Software version 1.4.
# Total RNA was isolated using Absolutely RNA Microprep Kit (Stratagene, La Jolla Calif., www.stratagene.com) according to the manufacturer's instructions. cDNA was synthesized using 0.2 μg of total RNA in 20 μl reaction mixture, containing oligo(dT)12-18 primers and Superscript II reverse transcriptase (GIBCO Invitrogen Corporation), according to the manufacturer's instructions. Real-time quantitative RT-PCR Taqman assays were performed using the Applied Biosystems 7300 Real-Time PCR System (Applied Biosystems, Foster City, Calif.). All reactions were done in quadruplicates with the use of a pre-developed gene expression assay mix (Applied Biosystems) containing primers and a probe for the mRNA of interest. […] All data was analyzed with 7300 System SDS Software v 1.4.
# [5] = tested on: SCID mouse; experiment: Teratoma formation in SCID mice; assay type: in vivo; conditions: HS181 13, H1 12 passages in O3; H1 7 passages in TeSR2
# Method: Teratoma formation experiments were performed by implantation of approximately 10^6 cells beneath the testicular capsule of a young (7-week-old) severe combined immunodeficiency (SCID) mouse. Three animals per each cell line were used. Teratoma growth was observed by weekly palpation, and the mice were sacrificed eight weeks after the implantation. The teratomas were fixed, and sections were stained with hematoxylin and eosin (HE) or with hematoxylin, eosin and PAS (HE-PAS). […] All animal experiments were performed at the infection-free animal facility of the Karolinska University Hospital in accordance with ethical committee approval.
substance,measurement,setting,value
"LN-521: protein formed by joining laminin α5, β2 and γ1 chains; human recombinant, produced in HEK293 cells",adhesion / survival without additives compared with ROCK inhibitor treated cells,[1],similar
same,adhesion / survival without additives compared with ROCK inhibitor treated cells,[1]; listed as LN-532,no ROCK inhibitor is necessary
same,survival of cells compared with LN-511,"[1]; 24 hours, no ROCK inhibitor",significantly higher
same,cell shape 24 hours after plating on LN-521,[1]; absence or presence of ROCK inhibitor,round
same,survival relative to Matrigel,[1]; exogenous bFGF removed from the O3 medium,20 times
same,survival 24 hours after plating,"[1]; medium lacking all growth factors of the TeSR1 formulation (bFGF, LiCl, GABA, pipecolic acid, TGFβ)",survived
same,survival after 24 hours relative to LN-511,[1]; no ROCK inhibitor,three
same,survival / attachment of dissociated hES cells 24 hours (one day) after plating,[1]; no ROCK inhibitor,did so as single cells
same,survival / attachment of dissociated hES cells 24 hours (one day) after plating,"[1]; no ROCK inhibitor, listed as human r-laminin-521",survived
same,survival / attachment of dissociated hES cells 24 hours (one day) after plating,"[1]; no ROCK inhibitor, listed as laminin-521",survived and started to proliferate
same,cell migration compared with Matrigel (imaging),[2]; 24 hours imaging,much faster
same,motility of hES cells compared with other coatings,"[2]; between fifth and seventh hours after plating, FIG. 14",higher
same,survival of Y-27632 treated cells compared with Matrigel,[3],survived better
same,number of mRNA transcripts of pluripotency markers Oct4 and Nanog compared with Matrigel,[4]; FIG. 11,higher numbers of transcripts
same,"expression levels of pluripotency markers Oct4, Nanog and SSEA4",[4]; similar to cells on Matrigel passed as small clumps,stable expression levels
same,tissues in teratomas formed in SCID mice,[5],all three germ lineages
